Assay results reported in patent US20180335421A1, “METHOD FOR SCREENING INHIBITORS TARGETING ANTI-APOPTOTIC SURVIVAL PATHWAYS” (Memorial Sloan-Kettering Cancer Center, priority 2015, published 2018).

How the values were obtained:
MCL-1 = MCL-1 (Homo sapiens, UniProt Q07820); conditions: background statement; cited from earlier work
A549 cells = test: ABT-737-induced apoptosis after knockdown of MCL-1; format: cell-based, human; conditions: A549 cells with knockdown of MCL-1
[1] = system: BCL-XL-addicted H23 cells; test: Treatment of engineered H23 cell lines with BCL-2, BCL-XL and MCL-1 inhibitors to confirm selective addiction; conditions: BCL-XL-addicted H23 cells (BCL-XL overexpression, MCL-1 knockdown); FIG. 3B
Source text: Isogenic H23 cancer cell lines with selective addiction to MCL-1, BCL-2, or BCL-XL.

parental H23 cells = test: Treatment of parental (MCL-1-addicted) H23 cells with BCL-2, BCL-XL and MCL-1 inhibitors; format: cell-based, human; conditions: parental H23 cells (MCL-1-addicted); FIG. 3B
BCL-2-addicted H23 cells = test: Treatment of engineered H23 cell lines with BCL-2, BCL-XL and MCL-1 inhibitors to confirm selective addiction; format: cell-based, human; conditions: BCL-2-addicted H23 cells (BCL-2 overexpression, MCL-1 knockdown); FIG. 3B
[2] = system: MCL-1-IRES-BIM or MCL-1-IRES-PUMA MEFs; test: Apoptosis induction by BH3-only proteins in engineered MEFs; format: cell-based, mouse; conditions: MCL-1-addicted MEFs; FIGS. 2A and 2B
Source text: (§1) Cellular dependency on BCL-2, BCL-XL or MCL-1 for survival is governed by the relative abundance among these proteins (FIG. 1). Intricate interplays among the BCL-2 subfamilies govern cellular survival/death, and also provide a molecular blueprint concerning the clinical application of BH3-mimetics in killing cancer cells. Using MEFs that express different combinations of anti-apoptotic BCL-2 members and activator BH3s, a system has been built that can distinguish between the inhibition of BCL-2/BCL-XL and MCL-1 by BAD/BAD mimetics and […]/NOXA mimetics, respectively (FIGS. 2A and 2B).
(§2) Importantly, this system mimics the “primed” cell death state of many cancers with abundant pre-assembled complexes of BCL-XL/BIM, BCL-XL/PUMA, BCL-2/BIM, BCL-2/PUMA, MCL-1/BIM or MCL-1/PUMA. […] In addition, compounds that downregulate MCL-1 mRNA and/or protein or induce endogenous NOXA, BIM, or PUMA will trigger similar death patterns.

wild-type cells = test: Sensitivity of wild-type cells to BH3-only proteins; format: cell-based, mouse; conditions: wild-type cells lacking pre-assembled cell death priming complexes; FIG. 2B
Source text: as §2

[3] = system: BCL-XL-IRES-BIM, BCL-XL-IRES-PUMA, BCL-2-IRES-BIM or BCL-2-IRES-PUMA MEFs; test: Apoptosis induction by BH3-only proteins in engineered MEFs; format: cell-based, mouse; conditions: BCL-XL- or BCL-2-addicted MEFs; FIGS. 2A and 2B
Source text: as §1, §2

MCL-1, sequence (Q07820 whole entry): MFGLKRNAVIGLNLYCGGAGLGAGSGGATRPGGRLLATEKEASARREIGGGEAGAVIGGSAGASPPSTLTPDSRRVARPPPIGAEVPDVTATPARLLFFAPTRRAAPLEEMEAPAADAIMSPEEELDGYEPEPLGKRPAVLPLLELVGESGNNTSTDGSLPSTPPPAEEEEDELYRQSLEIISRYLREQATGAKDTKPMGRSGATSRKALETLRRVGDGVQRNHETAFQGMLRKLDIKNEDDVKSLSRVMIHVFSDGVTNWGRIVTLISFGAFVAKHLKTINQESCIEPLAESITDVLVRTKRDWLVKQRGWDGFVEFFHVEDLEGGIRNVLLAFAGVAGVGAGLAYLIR

For `CC1(C)CCC(c2ccc(Cl)cc2)=C(CN2CCN(c3ccc(C(=O)NS(=O)(=O)c4ccc(N[C@H](CCN5CCOCC5)CSc5ccccc5)c(S(=O)(=O)C(F)(F)F)c4)cc3)CC2)C1` [ABT-263], the “inhibition of MCL-1” value (MCL-1) is given as “fail to inhibit”.

In the case of `CN(C)CC[C@H](CSc1ccccc1)Nc1ccc(S(=O)(=O)NC(=O)c2ccc(N3CCN(Cc4ccccc4-c4ccc(Cl)cc4)CC3)cc2)cc1[N+](=O)[O-]` [ABT-737, (R)-4-(4-((4′-chloro-[1,1′-biphenyl]-2-yl)methyl)piperazin-1-yl)-N-((4-((-4-(dimethylamino)-1-(phenylthio)butan-2-yl)amino)-3-nitrophenyl)sulfonyl)benzamide], the “susceptibility to ABT-737-induced apoptosis” value (A549 cells) is reported as “susceptible”, the “sensitivity of cells to inhibitor” value [1] is reported as “sensitive” and the “sensitivity of cells to inhibitor” value (parental H23 cells) is reported as “only sensitive to inhibitors of MCL-1”. For the same molecule, the “sensitivity of cells to inhibitor” value (BCL-2-addicted H23 cells) was “sensitive”.

With “NOXA: pro-apoptotic BH3-only member of the BCL-2 protein family that specifically inactivates MCL-1 (MPGKKARKNAQPSPARAPAELEVECATQLRRFGDKLNFRQKLLNLISKLFCSGT; UniProt Q13794 1-54, looked up)” the induction of apoptosis [2] was “selectively induces apoptosis” and the “sensitivity of wild-type cells” value (wild-type cells) was “less sensitive”.

B1: BAD: pro-apoptotic BH3-only BCL-2 family protein that binds to BCL-XL and BCL-2 but not MCL-1 (protein, UniProt Q92934 1-168, looked up)
Bcl2-associated agonist of …: MFQIPEFEPSEQEDSSSAERGLGPSPAGDGPSGSGKHHRQAPGLLWDASHQQEQPTSSSHHGGAGAVEIRSRHSSYPAGTEDDEGMGEEPSPFRGRSRSAPPNLWAAQRYGRELRRMSDEFVDSFKKGLPRPKSAGTATQMRQSSSWTRVFQSWWDRNLGRGSSAPSQ
For B1, the induction of apoptosis [3] was “induces apoptosis” and the “sensitivity of wild-type cells” value (wild-type cells) was “less sensitive”.
